Results taken from patent US10047083B2, “Dihydropyrimidinoisoquinolinones and pharmaceutical compositions thereof for the treatment of inflammatory disorders” (GALAPAGOS NV, priority 2011, dated 2018).

Key:
human neutrophils = test: Human neutrophil migration assay (embelin-induced); format: cell-based; conditions: neutrophils from human buffy coat, 30 min compound pre-incubation, migration towards embelin at EC80 for 1 h, ATPlite readout, read-out: human neutrophil migration inhibition (Neutrophils)
Method: 2. Cellular Assays 2.1. Human Neutrophil Migration Assay
The effect of agonists or antagonists for GPR84 can therefore be assayed in a neutrophil migration test. In the neutrophil migration assay, neutrophils, freshly isolated from buffy coats from human volunteers, are treated with a compound for 30 minutes. Subsequently, the neutrophils are transferred to the upper wells of a Corning HTS transwell 96 permeable support system, of which the lower wells are filled with a embelin solution at EC80 (concentration which gives 80% of the activity of GPR84). After 1 h of incubation, migration of the neutrophils towards embelin in the lower compartment can be quantified by measuring the ATP-content of the lower wells using the ATPlite luminescence ATP detection assay system (Perkin Elmer, Cat. No.: 436110).
A human buffy coat is diluted with an equal volume of ice cold DPBS. 20 mL of the diluted buffy coat is gently mixed with 4 mL of ACD buffer (140 mM citric acid, 200 mM sodium citrate and 220 mM dextrose). Then, 12 mL of the 6% dextran/0.9% NaCl solution (15 g dextran T2000 and 2.25 g NaCl dissolved in 250 mL H2O) is added to the mixture and the samples are inverted gently up to 20 times. The total volume was transferred to a new recipient and incubated at room temperature for 1 h for complete separation of the two phases to occur. The yellowish supernatant is then transferred to a clean centrifugation tube and centrifuged for 12 minutes at 1300 rpm and 4° C. After centrifugation, the supernatant is discarded and the remaining cell pellet is rapidly resuspended in 12 mL of ice-cold H2O for red blood cell lysis to occur. After 20 seconds, 4 mL of ice-cold 0.6 M KCl is added. Samples are mixed carefully and centrifuged for 6 minutes at 1300 rpm, 4° C. The supernatant is discarded and the red blood cell lysis procedure is repeated one more time. Subsequently, the cell pellet is resuspended in 4 mL of DPBS and layered over 5 mL of Lymphoprep (Nycomed Pharma, Cat. No.: 1114545) in a 15 mL centrifuge tube. After centrifugation for 12 min at 1300 rpm, 4° C., the supernatant is removed and the cell pellet, containing the neutrophils, is resuspended in 25 mL chemotaxis buffer (RPMI 1640 medium, supplemented with 10 mM HEPES; freshly made for each experiment)
A cell suspension of 8.9×10^6 cells per milliliter is prepared. 20 μL of compound solution in chemotaxis buffer is added to 180 μL cell suspension. The mixture is incubated at 37° C. for 30 minutes with intermediate resuspension of the cells after 15 minutes. Following this, 70 μL cell suspension is transferred to the upper compartment of a Corning HTS transwell 96 permeable support system with 5.0 μm pore size polycarbonate membrane (Corning, Cat. No.: 3387). The receiver well of the transwell system is then filled with 200 μL chemotaxis buffer containing compound and chemotactic agent (embelin). After incubation at 37° C. in 5% CO2 for 1 h, the upper plate of the transwell system is removed and the cell suspension in the receiver plate is transferred to a 96-well V-bottom plate. 50 μL of DPBS is added to the receiver plate to prevent remaining cells from drying out. The V-bottom plate is centrifuged for 6 minutes at 1500 rpm. The supernatant is removed and the cells are resuspended in 50 μL DPBS. The cells are then transferred back to the receiver plate of the transwell system. After this, 100 μL ATPlite solution (Perkin Elmer, Cat. No: 436110) was added to the cells. The plate is incubated for 10 minutes in the dark, while shaking. […] of cell lysate is then transferred to a white 96-well plate and luminescence is measured. The detected luminescent signal is considered as linearely related to the number of cells having migrated from the upper well to the receiver well.

GPR84 = biological target: T1, GPR84 (Homo sapiens, UniProt Q9NQS5); test: GTPγS binding assay (GPR84); format: biochemical; conditions: membranes from stable cell line over expressing GPR84; 3,3′ di indolylmethane at EC80
T1 construct: expressed in transfected cells; membranes used
T1 sequence (Q9NQS5 whole entry): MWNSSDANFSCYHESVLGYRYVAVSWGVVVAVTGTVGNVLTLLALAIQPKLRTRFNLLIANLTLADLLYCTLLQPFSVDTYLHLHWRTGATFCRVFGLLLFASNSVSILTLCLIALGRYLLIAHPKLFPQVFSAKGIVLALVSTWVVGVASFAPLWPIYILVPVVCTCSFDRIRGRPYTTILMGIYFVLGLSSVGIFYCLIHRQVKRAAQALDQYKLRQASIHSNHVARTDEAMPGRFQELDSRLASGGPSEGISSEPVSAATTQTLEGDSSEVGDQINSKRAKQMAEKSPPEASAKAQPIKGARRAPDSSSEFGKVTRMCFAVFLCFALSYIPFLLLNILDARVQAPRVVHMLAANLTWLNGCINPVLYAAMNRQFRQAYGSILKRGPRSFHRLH
Outline: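 Membranes (20 μg/well) from a stable GPR84-overexpressing line, pre-incubated with 0.1 μM GDP for 15 min at 4° C, mixed with 0.1 nM [35S]GTPγS and WGA SpA beads in 20 mM HEPES pH 7.4, 5 mM MgCl2, 250 mM NaCl, 0.05% BSA, 75 ug/mL saponin; 90 min at room temperature, then scintillation counting.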

Structure (SMILES)	IC50 (human neutrophils)	IC50 (GPR84)
O=c1nc(OCC2COCCO2)cc2n1CCc1cc(CCCNc3ccccc3)ccc1-2 (stereo in doubt) [Compound 149, 2-((S)-1-[1,4]dioxan-2-ylmethoxy)-9-(3-phenylamino-propyl)-6,7-dihydro-pyrimido[6,1-a]isoquinolin-4-one]	0.01 to 100 nM	0.01 to 100 nM
N#Cc1ccccc1-c1ccc2c(c1)CCn1c-2cc(OCC2COCCO2)nc1=O (centres unmarked) [Compound 4, 2-[2-([1,4]dioxan-2-ylmethoxy)-4-oxo-6,7-dihydro-4H-pyrimido[6,1-a]isoquinolin-9-yl]-benzonitrile]	101 to 500 nM	–
CC(C)(C)c1nc(COc2ccc3c(c2)CCn2c-3cc(OCC3COCCO3)nc2=O)no1 (centres unmarked) [Compound 17, 9-(5-tert-butyl-[1,2,4]oxadiazol-3-ylmethoxy)-2-([1,4]dioxan-2-ylmethoxy)-6,7-dihydro-pyrimido[6,1-a]isoquinolin-4-one]	0.01 to 100 nM	–
CCCC#Cc1ccc2c(c1)CCn1c-2cc(OCC2COCCO2)nc1=O (centres unmarked) [Compound 19, 2-([1,4]dioxan-2-ylmethoxy)-9-pent-1-ynyl-6,7-dihydro-pyrimido[6,1-a]isoquinolin-4-one]	0.01 to 100 nM	–
O=c1nc(OCC2COCCO2)cc2n1CCc1cc(CCc3ccccn3)ccc1-2 (centres unmarked) [Compound 20, 2-([1,4]dioxan-2-ylmethoxy)-9-(2-pyridin-2-yl-ethyl)-6,7-dihydro-pyrimido[6,1-a]isoquinolin-4-one]	0.01 to 100 nM	–
O=c1nc(OCC2COCCO2)cc2n1CCc1cc(-c3ccc4[nH]ccc4c3)ccc1-2 (centres unmarked) [Compound 22, 2-([1,4]dioxan-2-ylmethoxy)-9-(1H-indol-5-yl)-6,7-dihydro-pyrimido[6,1-a]isoquinolin-4-one]	0.01 to 100 nM	–
COc1ccccc1-c1ccc2c(c1)CCn1c-2cc(OCC2COCCO2)nc1=O (centres unmarked) [Compound 23, 2-([1,4]dioxan-2-ylmethoxy)-9-(2-methoxy-phenyl)-6,7-dihydro-pyrimido[6,1-a]isoquinolin-4-one]	101 to 500 nM	–
Cn1ccc2cc(-c3ccc4c(c3)CCn3c-4cc(OCC4COCCO4)nc3=O)ccc21 (centres unmarked) [Compound 34, 2-([1,4]dioxan-2-ylmethoxy)-9-(1-methyl-1H-indol-5-yl)-6,7-dihydro-pyrimido[6,1-a]isoquinolin-4-one]	0.01 to 100 nM	–
Cc1ccc(-c2ccc3c(c2)CCn2c-3cc(OCC3COCCO3)nc2=O)cn1 (centres unmarked) [Compound 35, 2-([1,4]dioxan-2-ylmethoxy)-9-(6-methyl-pyridin-3-yl)-6,7-dihydro-pyrimido[6,1-a]isoquinolin-4-one]	101 to 500 nM	–
CN(CC#Cc1ccc2c(c1)CCn1c-2cc(OCC2COCCO2)nc1=O)Cc1ccccc1 (centres unmarked) [Compound 85, 9-[3-(benzyl-methyl-amino)-prop-1-ynyl]-2-([1,4]dioxan-2-ylmethoxy)-6,7-dihydro-pyrimido[6,1-a]isoquinolin-4-one]	0.01 to 100 nM	–
CC(O)(C#Cc1ccc2c(c1)CCn1c-2cc(OCC2COCCO2)nc1=O)c1ccccc1 (centres unmarked) [Compound 92, 2-([1,4]dioxan-2-ylmethoxy)-9-(3-hydroxy-3-phenyl-but-1-ynyl)-6,7-dihydro-pyrimido[6,1-a]isoquinolin-4-one]	0.01 to 100 nM	–
CCC(O)(CC)CCc1ccc2c(c1)CCn1c-2cc(OC[C@@H]2COCCO2)nc1=O [Compound 155, 2-((S)-1-[1,4]dioxan-2-ylmethoxy)-9-(3-ethyl-3-hydroxy-pentyl)-6,7-dihydro-pyrimido[6,1-a]isoquinolin-4-one]	–	0.01 to 100 nM
CC(C)(O)CCc1ccc2c(c1)CCn1c-2cc(OC[C@@H]2COCCO2)nc1=O [Compound 156, 2-((S)-1-[1,4]dioxan-2-ylmethoxy)-9-(3-hydroxy-3-methyl-butyl)-6,7-dihydro-pyrimido[6,1-a]isoquinolin-4-one]	–	101 to 500 nM
CCC(O)CCc1ccc2c(c1)CCn1c-2cc(OC[C@@H]2COCCO2)nc1=O (stereo partly drawn) [Compound 157, 2-((S)-1-[1,4]dioxan-2-ylmethoxy)-9-(3-hydroxy-pentyl)-6,7-dihydro-pyrimido[6,1-a]isoquinolin-4-one]	–	101 to 500 nM
O=c1nc(OC[C@@H]2COCCO2)cc2n1CCc1cc(CCC3(O)CCCC3)ccc1-2 [Compound 166, 2-((S)-1-[1,4]dioxan-2-ylmethoxy)-9-[2-(1-hydroxy-cyclopentyl)-ethyl]-6,7-dihydro-pyrimido[6,1-a]isoquinolin-4-one]	–	0.01 to 100 nM
O=c1nc(OC[C@H]2COCCO2)cc2n1CCc1cc(C#CC3(O)CCOCC3)ccc1-2 [Compound 167, 2-((R)-1-[1,4]Dioxan-2-ylmethoxy)-9-(4-hydroxy-tetrahydro-pyran-4-ylethynyl)-6,7-dihydro-pyrimido[6,1-a]isoquinolin-4-one]	–	501 to 1000 nM

Other lines, results leading:

IC50 (human neutrophils)	IC50 (GPR84)	Structure (SMILES)
101 to 500 nM	101 to 500 nM	N#CCOc1ccc2c(c1)CCn1c-2cc(OCC2COCCO2)nc1=O (centres unmarked) [Compound 7, [2-([1,4]dioxan-2-ylmethoxy)-4-oxo-6,7-dihydro-4H-pyrimido[6,1-a]isoquinolin-9-yloxy]-acetonitrile]
101 to 500 nM	101 to 500 nM	O=c1nc(OCC2COCCO2)cc2n1CCc1cc(OCc3ncco3)ccc1-2 (centres unmarked) [Compound 8, 2-([1,4]dioxan-2-ylmethoxy)-9-(oxazol-2-ylmethoxy)-6,7-dihydro-pyrimido[6,1-a]isoquinolin-4-one]
0.01 to 100 nM	–	O=c1nc(OCC2COCCO2)cc2n1CCc1cc(C#CC3CC3)ccc1-2 (centres unmarked) [Compound 30, 9-cyclopropylethynyl-2-([1,4]dioxan-2-ylmethoxy)-6,7-dihydro-pyrimido[6,1-a]isoquinolin-4-one]
0.01 to 100 nM	–	O=c1nc(OC[C@H]2COCCO2)cc2n1CCc1cc(C#CC3CC3)ccc1-2 [Compound 111, 9-cyclopropylethynyl-2-((R)-1-[1,4]dioxan-2-ylmethoxy)-6,7-dihydro-pyrimido[6,1-a]isoquinolin-4-one]
0.01 to 100 nM	–	O=c1nc(OC[C@@H]2COCCO2)cc2n1CCc1cc(C#CC3CC3)ccc1-2 [Compound 122, 9-cyclopropylethynyl-2-((S)-1-[1,4]dioxan-2-ylmethoxy)-6,7-dihydro-pyrimido[6,1-a]isoquinolin-4-one]
–	0.01 to 100 nM	O=c1nc(OC[C@@H]2COCCO2)cc2n1CCc1cc(OCC3COC3)ccc1-2 [Compound 163, 2-((S)-1-[1,4]dioxan-2-ylmethoxy)-9-(oxetan-3-ylmethoxy)-6,7-dihydro-pyrimido[6,1-a]isoquinolin-4-one]
–	0.01 to 100 nM	O=c1nc(OC[C@H]2COCCO2)cc2n1CCc1cc(OCCCC3CC3)ccc1-2 [Compound 164, 9-(3-cyclopropyl-propoxy)-2-((R)-1-[1,4]dioxan-2-ylmethoxy)-6,7-dihydropyrimido[6,1-a]isoquinolin-4-one]
–	0.01 to 100 nM	COCCCc1ccc2c(c1)CCn1c-2cc(OC[C@@H]2COCCO2)nc1=O [Compound 165, 2-((S)-1-[1,4]dioxan-2-ylmethoxy)-9-(3-methoxy-propyl)-6,7-dihydro-pyrimido[6,1-a]isoquinolin-4-one]
–	101 to 500 nM	CCCOCCOc1ccc2c(c1)CCn1c-2cc(OC[C@H]2COCCO2)nc1=O [Compound 172, 2-((R)-1-[1,4]Dioxan-2-ylmethoxy)-9-(2-propoxy-ethoxy)-6,7-dihydro-pyrimido[6,1-a]isoquinolin-4-one]
–	501 to 1000 nM	CC(C)OCCOc1ccc2c(c1)CCn1c-2cc(OC[C@H]2COCCO2)nc1=O [Compound 173, 2-((R)-1-[1,4]Dioxan-2-ylmethoxy)-9-(2-isopropoxy-ethoxy)-6,7-dihydro-pyrimido[6,1-a]isoquinolin-4-one]
